Results: patent US5493007A, “Platelet aggregation inhibitors having high specificity for GPIIBIIIA” (Genentech, Inc., priority 1994, dated 1996)
Where a SMILES comes first, the peptide text is derived from it. Bridges are numbered along the chain shown (N, C = ends). [ ]: non-standard residue; d: D form. The star is where a group is joined. Pen = CC(C)(S)[C@H](N)C(=O)O; Orn = NCCC[C@H](N)C(=O)O; NH(CH2)4NH2 = NCCCCN*; Ava = NCCCCC(=O)O

Assays:
[1] = target: Fibronectin Receptor (Homo sapiens, UniProt P05556+P08648); experiment: Human Fibronectin-Fibronectin Receptor ELISA Assay; format: binding; parameters: octylglucoside (OG) extracted human placenta; from tissue; host or cells: human placenta; conditions: human placenta fibronectin receptor, fibronectin-coated plates; read-out: ELISA IC50 Fibronectin FnR
Fibronectin Receptor, sequence (P08648 42-894 limits assumed): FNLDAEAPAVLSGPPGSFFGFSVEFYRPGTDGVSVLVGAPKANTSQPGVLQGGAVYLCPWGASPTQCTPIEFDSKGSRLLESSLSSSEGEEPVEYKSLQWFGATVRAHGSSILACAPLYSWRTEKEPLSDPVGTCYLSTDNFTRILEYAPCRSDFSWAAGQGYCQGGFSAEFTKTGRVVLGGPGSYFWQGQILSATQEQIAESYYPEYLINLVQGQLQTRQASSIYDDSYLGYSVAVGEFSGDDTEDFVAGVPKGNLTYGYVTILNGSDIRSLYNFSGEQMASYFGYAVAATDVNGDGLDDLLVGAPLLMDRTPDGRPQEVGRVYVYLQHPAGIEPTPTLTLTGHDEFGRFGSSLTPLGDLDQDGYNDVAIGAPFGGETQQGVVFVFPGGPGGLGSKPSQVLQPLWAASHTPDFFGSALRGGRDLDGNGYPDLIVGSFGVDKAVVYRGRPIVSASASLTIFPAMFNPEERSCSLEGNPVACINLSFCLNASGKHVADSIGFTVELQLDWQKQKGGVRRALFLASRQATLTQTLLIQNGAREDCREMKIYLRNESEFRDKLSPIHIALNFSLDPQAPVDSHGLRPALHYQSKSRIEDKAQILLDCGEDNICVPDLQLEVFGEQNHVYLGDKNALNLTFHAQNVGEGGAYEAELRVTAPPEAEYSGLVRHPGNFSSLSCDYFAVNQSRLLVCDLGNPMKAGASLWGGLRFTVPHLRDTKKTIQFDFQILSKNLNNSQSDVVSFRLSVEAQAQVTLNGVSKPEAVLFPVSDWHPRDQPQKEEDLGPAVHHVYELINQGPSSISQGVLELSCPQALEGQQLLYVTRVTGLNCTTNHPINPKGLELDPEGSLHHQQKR
Fibronectin Receptor, sequence (P08648 895-1049 partner limits assumed): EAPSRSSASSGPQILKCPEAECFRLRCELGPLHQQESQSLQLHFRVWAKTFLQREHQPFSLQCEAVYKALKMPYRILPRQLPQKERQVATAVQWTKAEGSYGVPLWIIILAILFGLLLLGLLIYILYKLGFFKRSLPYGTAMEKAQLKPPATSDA
Fibronectin Receptor, sequence (P05556 21-798): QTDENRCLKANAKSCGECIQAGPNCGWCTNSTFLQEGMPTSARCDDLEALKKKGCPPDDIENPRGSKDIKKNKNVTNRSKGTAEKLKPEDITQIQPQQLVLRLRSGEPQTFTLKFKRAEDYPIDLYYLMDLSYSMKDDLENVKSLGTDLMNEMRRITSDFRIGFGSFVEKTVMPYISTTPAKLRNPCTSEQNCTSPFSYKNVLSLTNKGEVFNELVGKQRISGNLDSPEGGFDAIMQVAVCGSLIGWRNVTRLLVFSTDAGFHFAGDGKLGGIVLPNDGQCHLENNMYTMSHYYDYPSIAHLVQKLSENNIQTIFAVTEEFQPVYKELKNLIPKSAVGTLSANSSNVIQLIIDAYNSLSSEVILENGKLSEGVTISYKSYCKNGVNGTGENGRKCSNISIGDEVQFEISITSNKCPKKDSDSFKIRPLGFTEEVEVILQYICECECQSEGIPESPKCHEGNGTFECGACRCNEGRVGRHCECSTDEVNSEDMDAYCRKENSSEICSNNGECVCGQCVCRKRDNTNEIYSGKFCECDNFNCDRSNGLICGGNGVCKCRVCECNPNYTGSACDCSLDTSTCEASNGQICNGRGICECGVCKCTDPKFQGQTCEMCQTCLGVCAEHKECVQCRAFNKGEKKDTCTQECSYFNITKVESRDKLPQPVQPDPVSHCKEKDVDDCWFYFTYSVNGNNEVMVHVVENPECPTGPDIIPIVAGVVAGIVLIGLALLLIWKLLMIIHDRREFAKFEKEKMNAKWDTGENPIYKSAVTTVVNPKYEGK
Protocol: Fibronectin receptor is purified according to the procedures of Pytela et al., (Methods Enzymol. 144:475 […]). Briefly, fibronectin receptor is purified employing an Arg-Gly-Asp affinity chromatography from (100 mM) octylglucoside (OG) extracted human placenta. The OG extract is filtered over Sepharose 6B GRGDSPK column. The column is washed three times with three column volumes of Tris-buffered saline (TBS) TBS, 1 mM CaCl2, and 25 mM OG. The receptor is eluted with TBS, 20 mM EDTA, and 25 mM Octyl thioglucoside, and is stored in 1 mM CaCl2, 1 mM MgCl2, at -80° C.
Microtiter plates are coated with 110 μl human fibronectin (at 2 μg/ml) in TBS. Plates are washed three times with TBS containing 0.05% Tween 20. Test inhibitors are then added after washing in 10 microliter aliquots. The fibronectin receptor is added in 2-fold serial dilutions with TBS containing 20 mM octyl glucoside and 2 mM MnCl2. Plates are incubated three hours at room temperature, and washed with 200 μl TBS-Tween 20 buffer. 100 μl of affinity-purffied rabbit anti-human fibronectin receptor antibody is added to the wells and the plates are incubated two hours, washed twice with TBS-Tween and once with distilled water. Affinity-purified goat anti-rabbit IgG conjugated to horseradish peroxidase (100 μl) is added to each well followed by incubation for 60 minutes at room temperature. Plates are again washed twice with TBS-Tween and distilled water. 100 μl of substrate mixture (10 mg o-phenylenediamine in 25 ml 0.1M citrate-phosphate buffer, pH 5.0 6 μ30% H2 O2) is added to the plates and allowed to develop. The development process is stopped by adding 50 μl of 4N H2 SO4 to each well and read at […].

[2] = target: GP IIb IIIa (Homo sapiens, UniProt P05106+P08514); experiment: Fibrinogen-GP IIb IIIa Receptor ELISA Binding Assay; parameters: from tissue; host or cells: outdated human platelets; conditions: purified human platelet GP IIb IIIa, fibrinogen-coated plates; read-out: ELISA IC50 Fibrinogen GPIIb IIIa
GP IIb IIIa, sequence (P08514 32-887 limits assumed): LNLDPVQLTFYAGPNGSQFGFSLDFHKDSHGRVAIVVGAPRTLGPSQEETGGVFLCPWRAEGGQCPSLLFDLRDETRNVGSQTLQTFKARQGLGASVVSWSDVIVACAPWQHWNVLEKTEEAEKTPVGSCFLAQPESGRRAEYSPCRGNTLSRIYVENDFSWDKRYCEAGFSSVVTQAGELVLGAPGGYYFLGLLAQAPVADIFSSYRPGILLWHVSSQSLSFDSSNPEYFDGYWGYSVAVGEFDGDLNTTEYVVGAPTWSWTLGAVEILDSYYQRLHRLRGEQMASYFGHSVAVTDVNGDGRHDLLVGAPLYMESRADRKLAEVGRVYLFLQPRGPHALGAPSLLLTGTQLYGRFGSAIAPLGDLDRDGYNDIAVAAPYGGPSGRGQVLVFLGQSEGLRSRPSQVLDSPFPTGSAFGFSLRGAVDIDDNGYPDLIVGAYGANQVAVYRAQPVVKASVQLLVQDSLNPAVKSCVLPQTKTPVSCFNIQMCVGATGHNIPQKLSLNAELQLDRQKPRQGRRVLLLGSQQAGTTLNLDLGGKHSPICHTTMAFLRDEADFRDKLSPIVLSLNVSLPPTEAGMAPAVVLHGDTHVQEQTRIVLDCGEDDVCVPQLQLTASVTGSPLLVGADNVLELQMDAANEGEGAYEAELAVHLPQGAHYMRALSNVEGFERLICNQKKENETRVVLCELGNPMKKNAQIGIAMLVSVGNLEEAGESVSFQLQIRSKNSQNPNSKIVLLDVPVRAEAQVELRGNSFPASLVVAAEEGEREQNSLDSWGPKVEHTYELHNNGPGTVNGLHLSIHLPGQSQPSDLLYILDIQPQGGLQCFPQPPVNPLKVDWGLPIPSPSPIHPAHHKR
GP IIb IIIa, sequence (P08514 891-1039 partner limits assumed): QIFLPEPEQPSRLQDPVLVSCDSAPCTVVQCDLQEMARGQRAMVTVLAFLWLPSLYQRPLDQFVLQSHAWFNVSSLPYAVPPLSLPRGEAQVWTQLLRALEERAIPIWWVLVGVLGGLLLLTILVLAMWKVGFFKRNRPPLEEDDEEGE
GP IIb IIIa, sequence (P05106 27-788): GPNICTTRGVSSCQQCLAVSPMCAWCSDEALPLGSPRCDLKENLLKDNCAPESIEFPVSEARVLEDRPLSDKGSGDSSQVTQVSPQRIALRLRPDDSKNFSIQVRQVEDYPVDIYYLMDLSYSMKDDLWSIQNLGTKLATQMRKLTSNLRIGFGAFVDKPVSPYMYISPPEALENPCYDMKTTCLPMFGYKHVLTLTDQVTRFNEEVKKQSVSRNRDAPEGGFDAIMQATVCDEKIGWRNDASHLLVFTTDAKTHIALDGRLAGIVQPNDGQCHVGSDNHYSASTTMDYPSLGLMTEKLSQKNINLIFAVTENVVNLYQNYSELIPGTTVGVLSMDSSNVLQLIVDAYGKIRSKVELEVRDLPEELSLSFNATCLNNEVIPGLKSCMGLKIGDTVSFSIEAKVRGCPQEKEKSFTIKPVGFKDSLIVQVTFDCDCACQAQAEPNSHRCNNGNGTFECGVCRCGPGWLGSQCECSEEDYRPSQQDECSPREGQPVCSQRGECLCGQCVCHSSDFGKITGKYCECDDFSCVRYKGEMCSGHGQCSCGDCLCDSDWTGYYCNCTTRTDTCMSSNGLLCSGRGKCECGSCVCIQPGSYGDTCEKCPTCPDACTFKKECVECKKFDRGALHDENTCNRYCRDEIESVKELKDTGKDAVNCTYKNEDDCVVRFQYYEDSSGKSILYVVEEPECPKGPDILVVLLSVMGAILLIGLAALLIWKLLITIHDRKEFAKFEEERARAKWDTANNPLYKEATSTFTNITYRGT
Protocol: The method used is essentially that described in Nachman and Leung (J. Clin. Invest., 69:263-269 [1982]). The GP IIb IIIa is essentially purified as described in Fitzgerald et al., (Anal. Biochem. 151:169-177 [1985]).
Outdated human platelets are washed 3 times with 10 mM tris-HCl, 150 mM NaCl (TBS), 1 mM EDTA, pH 7.5, and centrifuged at 2000×g to pellet cells. Cells are lysed in 5 pellet volumes of TBS, 1% Triton X-100, 1 mM Ca2 Cl2, and followed by centrifugation at 30,000×g. The supernatant fraction is collected and the supernatant is loaded onto a concanavalin-A column, previously equilibrated in TBS, 1 mM Ca2 Cl2, 0.1% Triton, 0.05% NaN3 and eluted with 0.2M α-methylmannoside. Fractions are pooled and loaded onto a heparin-agarose column. The flowthrough is collected and concentration on an Amicon YM 30 filter to a volume of approximately 5-10 mi. The concentrate is then applied to an S-300 column (500 ml) and 6 ml fractions are collected. The GP IIb IlIa containing fractions are collected, pooled, and stored at -80° C.
The purification of fibrinogen is conducted essentially as described by Lipinska et al., (J. Lab. Clin. Med. 507, [1974]). Briefly, a 0.3% w/v solution of human fibrinogen (Kabi #5302) is dissolved in 150 mM NaCl. Saturated (NH4)2 SO4 is added dropwise with stirring to the fibrinogen solution to obtain about 16% saturation. The precipitate is spun down in appropriate size bottles at 2000×g. The supernatant is decanted and the precipitate resuspended in 150 mM NaCl (approximately 50% of the original volume). NH4 SO4 is again added dropwise to obtain 16% saturation. The suspension is spun down and the precipitate is resuspended in Tris-saline in a minimal volume (approximately 5% of the original volume). Any remaining insoluble material is spun down at 2000 rpm in a Sorval type centrifuge and the fibrinogen supernatant is decanted and dialyzed overnight at 4° C. against Tris-saline. Characterization of the fibrinogen is by the Bradford protein assay, SDS-PAGE, and/or Western blotting using well known standard procedures.
Briefly, 96 well plates are coated (Type Nunc 1 Maxisorp™) with 10 μg/ml purified fibrinogen (100 μl/well), and allowed to stand overnight at 4° C. The plates are washed three times with PBS Tween (0.137M NaCl, 0.003M KCl, 0.008M Na2 HPO4, 0.001M KH2 PO4, pH 7.4 at room temperature, 0.05% Tween-20) and blocked for 1 to 2 hours at room temperature with 200 μl/well TNCNT (which is 0.5% BSA, 20mM Tris, pH 7.5 at room temperature, 120 mM NaCl, 0.2% NAN3, 2mM CaCl2, 0.05% Tween 20, 0.5% BSA [Calbiochem RIA grade or better]) on a plate shaker. The plates are again washed three times with PBS/Tween and then 50 μl of sample in TNCNT is added. The mixture is incubated for 15 minutes at room temperature on a plate shaker. The stock solution of purified GP IIb IIIa receptor from human platelets, (0.4-1.0 mg/ml GP IIb IIIa in 0.1% Triton X-100, 1 mM CaCl2, 20 mM Tris, 150 mM NaCl, 0.05% NaN3 in 0.3M N-acetyl glucosamine pH 7.5, stored at -70° C.), is reconstituted to about 40 μg/ml in TNCNT. Fifty μl of this diluted GP IIb IIIa is then added to each well and incubated on a plate shaker at room temperature. After one hour, the plates are washed four times with PBS/Tween and 100 μl of a polyclonal or monoclonal antibody specific for GP IIIa such as AP3 (1 μg/ml) (See e.g. Newman et al., Blood, 65:227-232 [1985]) in ELISA buffer (PBS, 0.5% BSA, 0.05% Tween 20, 0.01% Thimerasol) is added. After a one hour incubation at room temperature on a plate shaker, the samples are washed 4 times with PBS/Tween. One hundred μl of GAM-HRP (horse radish peroxidase conjugate of goat anti-mouse IgG [Pel-Freeze Cat. 715305-1] dissolved in ELISA buffer) previously diluted to 1:10,000 is then added and the samples are incubated 1 hour at room temperature on a plate shaker. […]

| Compound | IC50 [1] | IC50 [2] |
| --- | --- | --- |
| N=C(N)NCCC[C@@H]1NC(=O)[C@@H](Cc2ccc(O)cc2)NC(=O)CSC[C@@H](C(=O)N[C@H](CCCCN)C(N)=O)NC(=O)[C@H](CC(=O)O)NC(=O)CNC1=O [7/4, cyclo-S-acetyl-dTyr--Arg--Gly--Asp--Cys--dLys--NH2] ({CH2CO}-[dY]RGDC[dK]-NH2; thioether N-5) | 66 nM | 8.3 nM |
| N=C(N)NCCC[C@@H]1NC(=O)[C@@H](Cc2ccc(O)cc2)NC(=O)CSC[C@@H](C(=O)N[C@@H](CCCN)C(N)=O)NC(=O)[C@H](CC(=O)O)NC(=O)CNC1=O [7/5, cyclo-S-acetyl-dTyr--Arg--Gly--Asp--Cys--Orn--NH2] ({CH2CO}-[dY]RGDC[Orn]-NH2; thioether N-5) | 63 nM | 11 nM |
| N=C(N)NCCC[C@@H]1NC(=O)[C@@H](Cc2ccc(O)cc2)NC(=O)CSC[C@@H](C(=O)NCCCCN)NC(=O)[C@H](CC(=O)O)NC(=O)CNC1=O [8/12, cyclo-S-acetyl-dTyr--Arg--Gly--Asp--Cys--NH--X (X = butylamine)] ({CH2CO}-[dY]RGDC-{NH(CH2)4NH2}; thioether N-5) | – | 10 nM |
| CC1(C)SCC(=O)N[C@H](Cc2ccc(O)cc2)C(=O)N[C@@H](CCCCN)C(=O)NCC(=O)N[C@@H](CC(=O)O)C(=O)N[C@@H]1C(=O)N[C@@H](CCCNC(=N)N)C(N)=O [7/16, cyclo-S-acetyl-dTyr--Lys--Gly--Asp--Pen--Arg--NH2] ({CH2CO}-[dY]KGD[Pen]R-NH2; thioether N-5) | > 10000 nM | 150 nM |
| N=C(N)NCCC[C@H](NC(=O)[C@@H]1CSCC(=O)N[C@H](Cc2ccc(O)cc2)C(=O)N[C@@H](CCCNC(=N)N)C(=O)NCC(=O)N[C@@H](CC(=O)O)C(=O)N1)C(N)=O [7/1, cyclo-S-acetyl-dTyr--Arg--Gly--Asp--Cys--Arg--NH2] ({CH2CO}-[dY]RGDCR-NH2; thioether N-5) | 57 nM | 10 nM |
| N=C(N)NCCC[C@H](NC(=O)[C@H](Cc1ccc(O)cc1)NC(=O)[C@@H]1CSCC(=O)N[C@H](Cc2ccc(O)cc2)C(=O)N[C@@H](CCCNC(=N)N)C(=O)NCC(=O)N[C@@H](CC(=O)O)C(=O)N1)C(N)=O [7/7, cyclo-S-acetyl-dTyr--Arg--Gly--Asp--Cys--Tyr--Arg--NH2] ({CH2CO}-[dY]RGDCYR-NH2; thioether N-5) | 27 nM | 8.9 nM |
| N=C(N)NCCC[C@@H]1NC(=O)[C@@H](Cc2ccc(O)cc2)NC(=O)CSC[C@@H](C(=O)O)NC(=O)[C@H](CC(=O)O)NC(=O)CNC1=O [7/46, cyclo-S-acetyl-dTyr--Arg--Gly--Asp--Cys--OH] ({CH2CO}-[dY]RGDC-OH; thioether N-5) | 3390 nM | 3.2 nM |
| N=C(N)NCCC[C@@H]1NC(=O)[C@@H](Cc2ccc(O)cc2)NC(=O)CSC[C@@H](C(=O)N[C@@H](CCC(N)=O)C(N)=O)NC(=O)[C@H](CC(=O)O)NC(=O)CNC1=O [7/27, cyclo-S-acetyl-dTyr--Arg--Gly--Asp--Cys--Gln--NH2] ({CH2CO}-[dY]RGDCQ-NH2; thioether N-5) | – | 3.1 nM |
| CC1(C)SCC(=O)N[C@H](Cc2ccc(O)cc2)C(=O)N[C@@H](CCCCN)C(=O)NCC(=O)N[C@@H](CC(=O)O)C(=O)N[C@@H]1C(=O)N[C@@H](CCCCN)C(N)=O [7/17, cyclo-S-acetyl-dTyr--Lys--Gly--Asp--Pen--Lys--NH2] ({CH2CO}-[dY]KGD[Pen]K-NH2; thioether N-5) | > 10000 nM | 238 nM |
| N=C(N)NCCC[C@@H]1NC(=O)[C@@H](Cc2ccc(O)cc2)NC(=O)C(CCCCN)SC[C@@H](C(=O)O)NC(=O)[C@H](CC(=O)O)NC(=O)CNC1=O (single isomer, unassigned) [9/11, cyclo-S-2-L-(6-aminocaproyl)-Lys--dTyr--Arg--Gly--Asp--Cys--OH] | 160 nM | 14.3 nM |
| N=C(N)NCCC[C@@H]1NC(=O)[C@@H](Cc2ccc(O)cc2)NC(=O)CSC[C@@H](C(=O)NCCCCC(=O)O)NC(=O)[C@H](CC(=O)O)NC(=O)CNC1=O [7/28, cyclo-S-(1-5)-dTyr--Arg--Gly--Asp--Cys--X (X = aminovaleric acid)] ({CH2CO}-[dY]RGDC[Ava]-OH; thioether N-5) | – | 70 nM |
